The source of these data is patent publication US9867795B2, “Nitrated lipids and methods of making and using thereof” (The UAB Research Foundation, priority 2004, dated 2018).

Entries after “also recorded” stand apart in the source; their conditions may differ.

The target in experiment [1] is T1, hPPARγ (Homo sapiens, UniProt P37231).
T1 construct: For assessing full-length PPAR receptors, CV-1 cells were transiently co-transfected; expressed in transfected cells; host or cells: CV-1 cells
T1 sequence (P37231 1-505): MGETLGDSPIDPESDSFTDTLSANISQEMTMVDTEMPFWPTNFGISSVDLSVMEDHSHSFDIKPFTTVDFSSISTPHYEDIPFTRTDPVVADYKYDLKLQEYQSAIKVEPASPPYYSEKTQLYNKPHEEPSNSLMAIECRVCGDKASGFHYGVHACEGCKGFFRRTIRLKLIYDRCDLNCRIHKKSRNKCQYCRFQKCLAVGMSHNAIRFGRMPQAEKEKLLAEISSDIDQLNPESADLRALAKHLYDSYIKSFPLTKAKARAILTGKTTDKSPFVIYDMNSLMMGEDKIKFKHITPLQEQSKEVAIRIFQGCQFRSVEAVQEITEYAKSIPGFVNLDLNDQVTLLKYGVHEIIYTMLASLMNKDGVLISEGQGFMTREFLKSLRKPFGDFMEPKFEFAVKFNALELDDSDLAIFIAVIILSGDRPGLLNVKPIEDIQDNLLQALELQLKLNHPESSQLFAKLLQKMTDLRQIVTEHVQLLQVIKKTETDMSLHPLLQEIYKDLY
The experiment in a line: CV-1 PPRE×3 TK-Luciferase transient transfection assay. To be noted: GW9662 added 1 hr prior to nitrated fatty acid. Format: cell-based. From the text: Cell Transient Transfection Assay. […] Then, cells were transiently co-transfected with a plasmid containing the luciferase gene under regulation by four Gal4 DNA binding elements (UASG×4 TK-Luciferase, a gift from Dr. Ronald M. Evans), in concert with plasmids containing the ligand binding domain for the different nuclear receptors fused to the Gal4 DNA binding domain. For assessing full-length PPAR receptors, CV-1 cells were transiently co-transfected with a plasmid containing the luciferase gene under the control of three tandem PPAR response elements (PPRE) (PPRE×3 TK-Luciferase) and hPPARγ, hPPARα or hPPARδ expression plasmids, respectively. In all cases, fluorescence protein (GFP) expression plasmid was co-transfected as the control for the transfection efficiency. Twenty-four hours after the transfection, cells were cultured for another 24 hours in Optium-MEM (Invitrogen, Carlsbad, Calif.). Then, cells were treated with different compounds as indicated in figures for 24 hours in Optium-MEM. Reporter luciferase assay kits from Promega (Madison, Wis.) were used to measure the luciferase activity according to the manufacturer's instructions with a luminometer (Victor II, Perkin-Elmer). Luciferase activity was normalized by GFP units. Each condition was performed at least in triplicates in each experiment.
PPAR transient transfection assay. […] Twelve hours before transfection, the media was removed and antibiotic-free media was applied. Cells were transiently co-transfected with a plasmid containing the luciferase gene under the control of three tandem PPAR response elements (PPRE) (PPRE×3 TK-Luciferase) and PPARγ, PPARα or PPARδ expression plasmids, respectively. In all cases, fluorescence protein (GFP) expression plasmid was co-transfected as the control for transfection efficiency. Twenty-four hours after transfection, cells the returned to OptiMEM (Invitrogen, Carlsbad, Calif.) for 24 hr and then treated as indicated for another 24 hr. Reporter luciferase assay kits from Promega (Madison, Wis.) were used to measure the luciferase activity according to the manufacturer's instructions with a luminometer (Victor II, Perkin-Elmer). Luciferase activity was normalized by GFP units. Each condition was performed in triplicate in each experiment (n>3).

Experiment [2] concerns 3T3-L1 adipocytes. The experiment can be described thus: [^3H]-2-Deoxy-D-glucose uptake assay in differentiated 3T3-L1 adipocytes. The experiment is classed as cell-based. Particulars: GW9662 added 1 h before nitrated lipids or Rosiglitazone. The procedure:
[^3H]-2-Deoxy-D-glucose Uptake Assay in Differentiated 3T3-L1 Adipocyte. [^3H]-2-Deoxy-D-glucose uptake assay as previously described (19) 3T3-L1 preadipocytes were grown in 24-well tissue culture plates, 2-day postconfluent preadipocytes were treated by 10 μg/ml insulin (Sigma), 1 μM dexamethasone (Sigma), and 0.5 mM 3-isobutyl-1-methylxanthine (Sigma) in DMEM containing 10% FBS for two days, then cells were kept in 10 μg/ml insulin also in DMEM containing 10% FBS for 6 days (changed medium every three days). Eight days after induction of adipogenesis, test compounds in DMEM containing 10% FBS were added for an additional 2 days (changed medium every day) and PPARγ-specific antagonist GW9662 were pretreated 1 h before other additions. After two rinses with serum-free DMEM, cells were incubated for 3 h in serum-free DMEM and rinsed at room temperature three times with freshly prepared KRPH buffer (5 mM phosphate buffer, 20 mM HEPES, 1 mM MgSO4, 1 mM CaCl2, 136 mM NaCl, 4.7 mM KCl, pH 7.4). The buffer was replaced with 1 μCi/ml of [^3H]-2-deoxy-D-glucose in KRPH buffer for 10 min at room temperature. The treated cells were rinsed carefully three times with cold PBS, lysed overnight in 0.8N NaOH (0.4 ml/well), and neutralized with […] of 12N HCl. Lysate (360 μl) was added to 4 ml Scinti-Safe Plus TM 50% in a scintillation vial, and the vials were mixed and counted.
[^3H]-2-Deoxy-D-glucose uptake assay in differentiated 3T3-L1 adipocytes. [^3H]-2-deoxy-D-glucose uptake was analyzed as previously (23). […] Cells were then rinsed three times with cold PBS, lysed overnight in 0.8 N NaOH (0.4 ml/well), neutralized with 26.6 μl of 12 N HCl and 360 μl of lysate was added into 4 ml Scinti-Safe Plus™ 50% for radioactivity determination by liquid scintillation counting.

Experiment [3] relates to mouse RAW264.7 macrophages. The experiment can be described thus: CD36 expression in macrophages (immunoblot, real-time PCR). To be noted: GW9662 added 1 h prior to treatment. Background: In western blotting, separated proteins are transferred to a membrane and probed.

In the case of `O=C(Nc1ccccc1)c1cc([N+](=O)[O-])ccc1Cl` [GW9662, reference compound], the “effect of GW9662 on nitrated fatty acid-mediated PPARγ activation” value in experiment [1] is “inhibited in a dose-dependent manner; also recorded: partially inhibited; also recorded: partially yet significantly blocked”. The “effect of GW9662 on induced glucose uptake” value in experiment [2] is “partially inhibited; also recorded: significantly inhibited”. Further, in experiment [3], the “effect of GW9662 on LNO2-induced CD36 expression” value is “partially inhibitable”.
